Measurements taken from US12178821B2, “Combination therapies for the treatment of cancer” (Curis, Inc., priority 2021, dated 2024).
Entries after “also recorded” stand apart in the source; their conditions may differ. Like-named read-outs stand apart in the source and are kept apart here.

Legend:
OC1-AML2 = assay: CellTiter Glo cell viability assay, GI50, 72 hrs; type: cell-based
Method: (§1) CellTiter Glo cell viability assay was used to evaluate the antitumor effects of Compound 1 in combination with AML SOC drugs daunorubicin, Ara-C, decitabine, azacitidine and venetoclax in FLT3-WT AML cell lines THP-1, F-36P, OCl-AML2 and GDM-1. GI50 (the concentration for 50% of maximal inhibition of cell proliferation) was determined for each drug in AML cell lines.
(§2) Cells were treated for 72 hrs. Relative cell viability was measured by CellTiter Glo assay (Promega, Madison, WI) at 0 and at 72 hrs. GI50 was calculated using GraphPad Prism 8.0 software.

GDM-1 = assay: CellTiter Glo cell viability assay, GI50, 72 hrs; type: cell-based
Method: as §1, §2

F-36P = assay: CellTiter Glo cell viability assay, GI50, 72 hrs; type: cell-based
Method: as §1, §2

THP-1 = assay: CellTiter Glo cell viability assay, GI50, 72 hrs; type: cell-based
Method: as §1, §2

[1] = concentration used in the combination experiments; cited from earlier work
[2] = test system: FLT3-WT AML cell lines THP-1, F-36P, OCl-AML2 and GDM-1; assay: CellTiter Glo combination experiments summarised over the cell line panel; type: cell-based; details: 4 FLT3-WT AML cell lines, 96 hrs, clinically relevant drug concentration
Method: as §1, with “lines. Either GI50 (below peak plasma concentration) or peak plasma concentration (if GI50 was higher than peak plasma concentration) of each drug was used as clinically relevant concentration for combination experiments.” for “lines.”
Cells were treated continuously with clinically relevant drug concentration for 96 hrs. Relative cell viability was measured by CellTiter Glo assay (Promega, Madison, WI) at 0 and at 96 hrs according to manufacturer's instructions. All values are presented as mean±SE. Cell viability assay data were analyzed with one-way ANOVA. P values less than 0.05 were considered significant. Statistical analysis was performed using GraphPad Prism 8.0 software. + Less than 50% growth inhibition, p<0.05; ++ 50-100% growth inhibition, p<0.05; +++ Induction of cell death (cytotoxic effect), p<0.05; NS, not significant; ND, not defined. *Venetoclax resistant cell line, **Azacitidine/Decitabine resistant cell line. Clinically relevant conc (peak plasma conc): Compound 1-10 μM; Venetoclax—1 μM; and Azacitidine—4 μM.

[3] = OC1-AML2 cells, treated for 72 hrs, CellTiter Glo, read-out: GI50
[4] = F-36P cells, treated for 72 hrs, CellTiter Glo, read-out: GI50
[5] = Homo sapiens, GDM-1 cells, treated for 72 hrs, CellTiter Glo, read-out: GI50
[6] = Homo sapiens, THP-1 cells, treated for 72 hrs, CellTiter Glo, read-out: GI50

Row | Structure (SMILES) | GI50 (OC1-AML2; [3]) [µM] | GI50 (GDM-1; GDM-1 cells, treated for 72 hrs, CellTiter Glo, read-out: GI50) [µM] | GI50 (F-36P; [4]) [µM] | GI50 (THP-1; THP-1 cells, treated for 72 hrs, CellTiter Glo, read-out: GI50) [µM] | Clinically relevant conc (peak plasma conc) [1] [µM] | resistance of the cell line to the treatment (OC1-AML2; OCl-AML2) | GI50 (GDM-1; [5]) [µM] | GI50 (THP-1; [6]) [µM] | antitumor effect of the combination over the cell line panel, in words [2] | GI50 (OC1-AML2; 72 h) [µM] | GI50 (GDM-1; Homo sapiens, GDM-1, 72 h) [µM] | GI50 (F-36P; 72 h) [µM] | GI50 (THP-1; Homo sapiens, THP-1, 72 h) [µM]
1 | Nc1ccn([C@@H]2O[C@H](CO)[C@@H](O)[C@@H]2O)c(=O)n1 [Ara-C] | 4 | 0.005 | 0.15 | 0.15 |  |  |  |  |  |  |  |  | 
2 | Nc1ncn([C@@H]2O[C@H](CO)[C@@H](O)[C@H]2O)c(=O)n1 [Azacitidine] | 30 |  | 4 |  | 4 | resistant | 2 | 3 |  |  |  |  | 
3 | CC1(C)CCC(CN2CCN(c3ccc(C(=O)NS(=O)(=O)c4ccc(NCC5CCOCC5)c([N+](=O)[O-])c4)c(Oc4cnc5[nH]ccc5c4)c3)CC2)=C(c2ccc(Cl)cc2)C1 [Venetoclax] | 0.002 |  | 18 |  | 1 |  | 0.005 | 18 |  |  |  |  | 
4 | Cc1cc(-c2nc(C(=O)Nc3cc4oc(N5CCOCC5)nc4nc3N3CC[C@@H](O)C3)co2)ccn1 [Compound 1] | 13 |  | > 20 |  | 10 |  | > 20 | > 20 | potentiated antitumor effects of azacitidine in 3 of 4 FLT3-WT AML cell lines; also recorded: significantly potentiated antitumor effects of azacitidine+venetoclax in all AML FLT3-WT cell lines |  |  |  | 
5 | COc1cccc2c1C(=O)c1c(O)c3c(c(O)c1C2=O)C[C@@](O)(C(C)=O)C[C@@H]3O[C@H]1C[C@H](N)[C@H](O)[C@H](C)O1 [Daunorubicin] |  |  |  |  |  |  |  |  |  | 0.005 | 0.01 | 0.1 | 0.005
6 | Nc1ncn([C@H]2C[C@H](O)[C@@H](CO)O2)c(=O)n1 [Decitabine] |  |  |  |  |  |  |  |  |  | 18 | 0.08 | 0.2 | 0.15
